# Assays:
# P. aeruginosa PPK2C = molecular target: T1, P. aeruginosa PPK2C (Pseudomonas aeruginosa, UniProt Q9HYF1); experiment: PPK2C AMP phosphorylation by polyP (ADP synthesis), toluidine blue detection; format: biochemical; conditions: ADP synthesis from AMP and polyP; 275 nM enzyme; read-out: IC50 PPK2C
# T1 construct: MBP (N, cleaved yes); His tag (N, cleaved yes); made in house; host or cells: E. coli BL21(DE3)
# Description: All IC50 and kinetic assay mixtures contained equimolar amounts (275 nM) of PPK to ensure valid comparison between different enzymes. PolyP synthesis activity (for PPK1 and PPK2B) was assayed using the reaction buffer and conditions described above. ATP concentration was varied as indicated for kinetic experiments. Curves were fit using GraphPad Prism V9.
# Nucleotide phosphorylation activity of PPK2 enzymes was assayed in buffer containing 50 mM Tris-HCl, pH 7.5, 10 mM (NH4)2SO4, 10 mM MgCl2, 5 mM polyP45 (Sigma; in terms of individual Pi monomers), and nucleotide (ADP or AMP) at 5 mM for IC50 reactions or as indicated for kinetic experiments. Enzyme was added to a final concentration of 275 nM in 100-μl reaction volumes. One-hundred-microliter reaction mixtures were incubated at 37°C for 30 min, and then 5-μl aliquots were withdrawn and added to 1,000 μl of 6-mg/liter toluidine blue dissolved in 40 mM acetic acid to quench the reaction and quantify the polyP that remained. The A630/530 nm ratio was then recorded, and the values obtained were corrected by subtracting the corresponding blanks (all ingredients except enzyme). The amount of polyP consumed was calculated by subtracting the amount present after reaction from that present in the initial reaction mix, as calculated via a standard curve. Each monomer of Pi consumed from polyP equates to one nucleoside phosphorylated. Curves were fit using GraphPad Prism V9.
# P. aeruginosa PA14 [1] = experiment: Swimming motility assay; format: cell-based, Pseudomonas aeruginosa
# Description: Swimming motility plates consisted of 0.3% (wt/vol) Bacto agar (Becton Dickinson) and 2.5% (wt/vol) LB (Miller; Bioshop). Where indicated, 100 μM compound or an equivalent volume of DMSO was added to the agar prior to pouring. Plates were stab inoculated with a pipette tip dipped in overnight LB culture. Plates were incubated in sealed Tupperware at 30°C for 18 h, and swimming diameter was imaged and measured electronically.
# P. aeruginosa PA14 [2] = experiment: Pyoverdine quantification (absorbance at 403 nm); format: cell-based, Pseudomonas aeruginosa
# Description: (§1) Fifty-milliliter P. aeruginosa cultures in 2.5% (wt/vol) LB (Miller; Bioshop) were grown to stationary phase in 125-ml Erlenmeyer flasks with 180-rpm shaking at 37°C for 18 h. Cultures were centrifuged at 18,000 rpm for 30 min to clarify the supernatant, which was then filter sterilized. Pyoverdine was quantified spectrophotometrically at 403 nm as described previously ([55]). Pyocyanin was extracted via chloroform and treated with HCl to yield a red product that was quantified at 520 nm ([55]). To account for any colorimetric interference by inhibitors, cell-free blank readings were subtracted from each sample.
# P. aeruginosa PA14 [3] = experiment: Pyocyanin quantification (absorbance at 520 nm); format: cell-based, Pseudomonas aeruginosa
# Description: as §1
# P. aeruginosa [4] = experiment: Antibiotic synergy in the C. elegans LK model; format: in vivo, Caenorhabditis elegans; conditions: for protection of C. elegans in combination with antibiotic: LK assay
# Description: Assessment of antibiotic synergy in the C. elegans model was adapted from previously described protocols ([25]). Briefly, glp-4 C. elegans worms were incubated at 25°C with P. aeruginosa and the indicated amount of gallein or DMSO in LK medium as described above. After 24 h, antibiotics were added. After another 24 h, C. elegans survival was scored as described above.
# P. aeruginosa [5] = experiment: microbe, parasite or virus in culture; format: cell-based, Pseudomonas aeruginosa; conditions: 100 μM gallein, LK medium
# C. elegans = experiment: Toxicity toward C. elegans (OP50 + gallein curves); format: in vivo, Caenorhabditis elegans; conditions: 100 μM
# Description: We tested both liquid killing (LK) and solid-phase slow killing (SK) models of infection, as these two assays are reliant upon distinct mechanisms of P. aeruginosa pathogenesis ([34], [35]). […]. Wild-type N2 C. elegans and the glp-4 conditionally sterile mutant strain were obtained from the Caenorhabditis Genetics Center. Liquid killing assays were conducted using glp-4 mutant worms as described previously ([35]), with the exception of survival being scored manually under a Zeiss light microscope instead of via Sytox Orange staining. Nematodes were scored as dead when they no longer moved when tapped. Solid killing was conducted using glp-4 as described previously ([34]), with the indicated concentration of inhibitor impregnated into the SK agar. Bacterial CFU accumulation in WT N2 worms was quantified as described previously ([56]). Briefly, age-synchronized embryos were spotted onto bacterium-seeded nematode growth medium (NGM) agar plates impregnated with inhibitor or DMSO. Embryos were incubated at 25°C for 3 days, after which point adult worms were harvested, washed, lysed, and enumerated for CFU.
# human protein kinases = experiment: Counterscreen against human protein kinases, [33P]ATP filter-binding assay; format: biochemical; conditions: 10 μM gallein, array of divergent human kinases
# Description: Toxicity is always a major concern with kinase inhibitors, even though the absence of PPK homologues in mammals makes these enzymes particularly attractive therapeutic targets ([1], [11]). Cytotoxicity of the inhibitors was therefore assessed in cultured human embryonic kidney (HEK) […] cells via standard trypan blue viability assays ([36]). While the initial hit RT1 reduced cell viability by ∼60%, gallein was noncytotoxic at concentrations up to 100 μM (Fig. 6A). Gallein was also counterscreened against an array of divergent human kinases available at the International Centre for Kinase Profiling (University of Dundee), as described previously ([37]).
# FIG 6 Gallein avoids off-target toxicity. (A) HEK cell cytotoxicity assay. Viability determined via trypan blue staining following 48 h of incubation with compounds. (B) Counterscreen for inhibition of human protein kinases by 10 μM gallein via radioactive ([^33P]ATP) filter-binding assay performed by the University of Dundee MRC PPU ([26]). (A) ns, P > 0.05; *, P < 0.05 (one-way ANOVA, Tukey’s multiple-comparison test, n = 3).
# [6] = WT: DMSO control vs 100 µM gallein
# [7] = Δppk1, 2a, 2b, 2c: DMSO control vs 100 µM gallein
# [8] = Δppk1: DMSO control vs 100 µM gallein
# [9] = Δppk2a, 2b, 2c: DMSO control vs 100 µM gallein
# T1 sequence (Q9HYF1 whole entry): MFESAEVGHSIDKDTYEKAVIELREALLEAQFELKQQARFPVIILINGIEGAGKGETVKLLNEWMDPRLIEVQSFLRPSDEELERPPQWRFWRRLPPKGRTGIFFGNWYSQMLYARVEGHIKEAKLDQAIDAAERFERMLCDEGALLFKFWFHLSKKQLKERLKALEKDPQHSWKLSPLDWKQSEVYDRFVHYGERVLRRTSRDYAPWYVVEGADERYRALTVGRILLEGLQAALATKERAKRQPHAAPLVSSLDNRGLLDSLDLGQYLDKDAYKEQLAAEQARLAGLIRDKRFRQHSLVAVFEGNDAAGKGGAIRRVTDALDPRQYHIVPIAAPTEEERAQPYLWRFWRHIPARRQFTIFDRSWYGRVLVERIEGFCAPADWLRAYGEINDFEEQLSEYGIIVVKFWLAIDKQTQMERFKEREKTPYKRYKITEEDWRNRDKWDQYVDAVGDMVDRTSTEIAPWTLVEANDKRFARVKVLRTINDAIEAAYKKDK
smiles,measurement,setting,value
"O=C1OC2(c3ccccc31)c1ccc(O)c(O)c1Oc1c2ccc(O)c1O [RT4 (gallein), gallein]",IC50,P. aeruginosa PPK2C,165 ± 5 µM
same,flagellum-based swimming motility,"P. aeruginosa PA14 [1]; WT, 100 μM in agar",faithfully reproduced in WT P. aeruginosa the defect in flagellum-based swimming motility observed in the ΔpolyP strain
same,"swimming motility, Mean Diff.",P. aeruginosa PA14 [1]; [6],2
same,"swimming motility, Mean Diff.",P. aeruginosa PA14 [1]; [7],-0.1
same,"swimming motility, Mean Diff.",P. aeruginosa PA14 [1]; [8],1.05
same,"swimming motility, Mean Diff.",P. aeruginosa PA14 [1]; [9],0.65
same,pyoverdine production,"P. aeruginosa PA14 [2]; WT, Δppk1 and Δppk2 strains",reproduced the marked pyoverdine and pyocyanin defects observed in the ΔpolyP strain
same,"Pyoverdine, Mean Diff.",P. aeruginosa PA14 [2]; [6],38.33
same,pyoverdine production,P. aeruginosa PA14 [2]; ΔpolyP strain,no significant decrease of either toxin
same,"Pyoverdine, Mean Diff.",P. aeruginosa PA14 [2]; [7],-3.233
same,"Pyoverdine, Mean Diff.",P. aeruginosa PA14 [2]; [8],17.13
same,"Pyoverdine, Mean Diff.",P. aeruginosa PA14 [2]; [9],45.33
same,pyocyanin production,"P. aeruginosa PA14 [3]; WT, Δppk1 and Δppk2 strains",reproduced the marked pyoverdine and pyocyanin defects observed in the ΔpolyP strain
same,"Pyocyanin, Mean Diff.",P. aeruginosa PA14 [3]; [6],0.2097
same,pyocyanin production,P. aeruginosa PA14 [3]; ΔpolyP strain,no significant decrease of either toxin
same,"Pyocyanin, Mean Diff.","P. aeruginosa PA14 [3]; ∆ppk1, 2a, 2b, 2c: DMSO control vs 100 µM gallein",0.07567
same,"Pyocyanin, Mean Diff.",P. aeruginosa PA14 [3]; ∆ppk1: DMSO control vs 100 µM gallein,0.08867
same,"Pyocyanin, Mean Diff.","P. aeruginosa PA14 [3]; ∆ppk2a, 2b, 2c: DMSO control vs 100 µM gallein",0.2097
same,"C. elegans antibiotic synergy, Mean Diff.",P. aeruginosa [4]; Cipro (0.75 µg/mL) DMSO vs Cipro (0.75 µg/mL) + 100 µM gallein,-47.1
same,protection of C. elegans in combination with antibiotic,P. aeruginosa [4]; in combination with ciprofloxacin,achieved greater protection of C. elegans than did gallein or antibiotics alone
same,protection of C. elegans in combination with antibiotic,P. aeruginosa [4]; in combination with tetracycline,achieved greater protection of C. elegans than did gallein or antibiotics alone
same,"C. elegans antibiotic synergy, Mean Diff.",P. aeruginosa [4]; No antibiotic DMSO vs Cipro (0.75 µg/mL) + 100 µM gallein,-35.08
same,"C. elegans antibiotic synergy, Mean Diff.",P. aeruginosa [4]; No antibiotic DMSO vs No antibiotic + 100 µM gallein,-16.19
same,"C. elegans antibiotic synergy, Mean Diff.",P. aeruginosa [4]; No antibiotic DMSO vs Tet (10 µg/mL) + 100 µM gallein,-38.97
same,"C. elegans antibiotic synergy, Mean Diff.",P. aeruginosa [4]; Tet (10 µg/mL) DMSO vs Tet (10 µg/mL) + 100 µM gallein,-49.51
same,effect on the MIC of tetracycline or ciprofloxacin,P. aeruginosa [5],did not alter the MIC
same,toxicity toward C. elegans,C. elegans,no gallein toxicity toward C. elegans was observed
same,loss of activity of human kinases,human protein kinases,≤ 25%

# — PMC8262977, “A Dual-Specificity Inhibitor Targets Polyphosphate Kinase 1 and 2 Enzymes To Attenuate Virulence of Pseudomonas aeruginosa” (mBio, 2021)
